By IC50 is commonly meant the concentration at which inhibition is half-maximal. A lower IC50 goes with inhibition by little substance.

The assay deals with T1, MAGL (Homo sapiens, UniProt Q99685).
T1 sequence (Q99685 1-303): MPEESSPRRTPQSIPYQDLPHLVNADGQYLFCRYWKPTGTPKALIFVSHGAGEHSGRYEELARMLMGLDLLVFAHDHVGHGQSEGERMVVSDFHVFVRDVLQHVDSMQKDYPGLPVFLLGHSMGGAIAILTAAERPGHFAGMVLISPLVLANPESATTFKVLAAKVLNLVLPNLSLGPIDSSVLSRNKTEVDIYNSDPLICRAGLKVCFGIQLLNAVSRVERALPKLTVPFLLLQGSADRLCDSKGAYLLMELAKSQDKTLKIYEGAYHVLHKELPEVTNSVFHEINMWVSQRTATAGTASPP
As to the kind of experiment: 2-AG assay (MAGL inhibitory activity; hydrolysis of 2-arachidonoylglycerol to arachidonic acid followed by mass spectrometry). The format is biochemical. To be noted: 15 min preincubation at RT, 8 μM 2-arachidonoylglycerol, 30 min at RT, RapidFire MS readout. Summed up: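 Compounds (final 12.5 μM to […], 3-fold steps) preincubated 15 min at RT with MAGL ([…]) in 50 mM TRIS, 1 mM EDTA, Tween buffer. Reaction started with 8 μM 2-arachidonoylglycerol, run 30 min at RT, quenched with ACN containing d8-arachidonic acid. Arachidonic acid quantified by RapidFire SPE-triple quadrupole MS (negative ESI), activity from arachidonic acid/d8 ratio.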
With `O=C1CN(c2cccc(C(=O)N3CCN4C[C@@H](c5ccc(F)c(Cl)c5)OC[C@@H]4C3)c2Cl)CCN1` [Example 126, 4-[3-[(3R,9aS)-3-(3-chloro-4-fluoro-phenyl)-3,4,6,7,9,9a-hexahydro-1H-pyrazino[2,1-c][1,4]oxazine-8-carbonyl]-2-chloro-phenyl]piperazin-2-one], it took 96.2 nM to reach half-maximal inhibition (IC50). With `O=C(c1cccc(-c2cnsc2)c1Cl)N1CCN2C[C@@](O)(c3ccc(F)c(Cl)c3)OC[C@@H]2C1` [Example 127, [(3R,9aS)-3-(3-chloro-4-fluoro-phenyl)-3-hydroxy-1,4,6,7,9,9a-hexahydropyrazino[2,1-c][1,4]oxazin-8-yl]-(2-chloro-3-isothiazol-4-yl-phenyl)methanone] the figure was 97.7 nM; with `COc1cccc(C(=O)N2CCN3C[C@@H](c4cc(F)c(F)cc4F)OC[C@@H]3C2)c1Cl` [Example 128, [(3R,9aS)-3-(2,4,5-trifluorophenyl)-3,4,6,7,9,9a-hexahydro-1H-pyrazino[2,1-c][1,4]oxazin-8-yl]-(2-chloro-3-methoxy-phenyl)methanone], 103 nM; with `COc1cccc(C(=O)N2CCN3C[C@@](O)(c4ccc(Cl)cc4Cl)OC[C@@H]3C2)c1Cl` [Example 129, [(3R,9aS)-3-(2,4-dichlorophenyl)-3-hydroxy-1,4,6,7,9,9a-hexahydropyrazino[2,1-c][1,4]oxazin-8-yl]-(2-chloro-3-methoxy-phenyl)methanone], 113 nM. The result for `COc1cccc(C(=O)N2CCN3C[C@@](O)(c4ccc(F)c(F)c4F)OC[C@@H]3C2)c1Cl` [Example 130, [(3R,9aS)-3-hydroxy-3-(2,3,4-trifluorophenyl)-1,4,6,7,9,9a-hexahydropyrazino[2,1-c][1,4]oxazin-8-yl]-(2-chloro-3-methoxy-phenyl)methanone] reads 117 nM; that for `COc1cccc(C(=O)N2CCN3C[C@@](O)(c4cc(Br)c(OC)s4)OC[C@@H]3C2)c1Cl` [Example 131, [(3S,9aS)-3-(4-bromo-5-methoxy-2-thienyl)-3-hydroxy-1,4,6,7,9,9a-hexahydropyrazino[2,1-c][1,4]oxazin-8-yl]-(2-chloro-3-methoxy-phenyl)methanone], 118 nM; that for `N#Cc1cc(-c2cc(F)cc(C(=O)N3CCN4C[C@@H](c5c[nH]c(C(F)(F)F)cc5=O)OC[C@@H]4C3)c2Cl)c[nH]1` [Example 132, 4-[3-[(3R,9aS)-3-[4-oxo-6-(trifluoromethyl)-1H-pyridin-3-yl]-3,4,6,7,9,9a-hexahydro-1H-pyrazino[2,1-c][1,4]oxazine-8-carbonyl]-2-chloro-5-fluoro-phenyl]-1H-pyrrole-2-carbonitrile], 131 nM.

`O=C(c1cc(F)cc(-c2c[nH]nc2F)c1Cl)N1CCN2C[C@@H](c3cc(Cl)c[nH]c3=O)OC[C@@H]2C1` [Example 133, 3-[(3R,9aS)-8-[2-chloro-5-fluoro-3-(3-fluoro-1H-pyrazol-4-yl)benzoyl]-3,4,6,7,9,9a-hexahydro-1H-pyrazino[2,1-c][1,4]oxazin-3-yl]-5-chloro-1H-pyridin-2-one] had an IC50 of 142 nM.

Regarding `O=C(c1cccc(-c2n[nH]c(=O)o2)c1Cl)N1CCN2C[C@@H](c3ccc(F)c(Cl)c3)OC[C@@H]2C1` [Example 134, 5-[3-[(3R,9aS)-3-(3-chloro-4-fluoro-phenyl)-3,4,6,7,9,9a-hexahydro-1H-pyrazino[2,1-c][1,4]oxazine-8-carbonyl]-2-chloro-phenyl]-3H-1,3,4-oxadiazol-2-one], 144 nM corresponded to half-maximal inhibition (IC50). With `COc1cccc(C(=O)N2CCN3C[C@@H](c4cc(Cl)c(F)c(C#N)c4)OC[C@@H]3C2)c1Cl` [Example 135, 5-[(3R,9aS)-8-(2-chloro-3-methoxy-benzoyl)-3,4,6,7,9,9a-hexahydro-1H-pyrazino[2,1-c][1,4]oxazin-3-yl]-3-chloro-2-fluoro-benzonitrile] the figure was 146 nM.

On to `COc1cccc(C(=O)N2CCN3C[C@@](O)(c4ccc(C(F)(F)F)[nH]c4=O)OC[C@@H]3C2)c1Cl` [Example 136, 3-[(3R,9aS)-8-(2-chloro-3-methoxy-benzoyl)-3-hydroxy-1,4,6,7,9,9a-hexahydropyrazino[2,1-c][1,4]oxazin-3-yl]-6-(trifluoromethyl)-1H-pyridin-2-one], for which 152 nM corresponded to half-maximal inhibition (IC50).

In turn, `COc1cccc(C(=O)N2CCN3C[C@@H](c4ccc(-c5cnco5)c(Cl)c4)OC[C@@H]3C2)c1Cl` [Example 137, [(3R,9aS)-3-(3-chloro-4-oxazol-5-yl-phenyl)-3,4,6,7,9,9a-hexahydro-1H-pyrazino[2,1-c][1,4]oxazin-8-yl]-(2-chloro-3-methoxy-phenyl)methanone] returned an IC50 of 182 nM. On to `N#Cc1cc(-c2cccc(C(=O)N3CCN4C[C@@H](c5ccc(F)c(Cl)c5)OC[C@@H]4C3)c2Cl)n[nH]1` [Example 138, 3-[3-[(3R,9aS)-3-(3-chloro-4-fluoro-phenyl)-3,4,6,7,9,9a-hexahydro-1H-pyrazino[2,1-c][1,4]oxazine-8-carbonyl]-2-chloro-phenyl]-1H-pyrazole-5-carbonitrile], for which the IC50 is 190 nM. The result for `COc1cccc(C(=O)N2CCN3C[C@@](O)(c4csc(-c5ccc(F)cc5)n4)OC[C@@H]3C2)c1Cl` [Example 139, [(3S,9aS)-3-[2-(4-fluorophenyl)thiazol-4-yl]-3-hydroxy-1,4,6,7,9,9a-hexahydropyrazino[2,1-c][1,4]oxazin-8-yl]-(2-chloro-3-methoxy-phenyl)methanone] reads 254 nM; that for `O=C(c1cccc(-c2n[nH]cc2F)c1Cl)N1CCN2C[C@@H](c3cc(Cl)c[nH]c3=O)OC[C@@H]2C1` [Example 140, 3-[(3R,9aS)-8-[2-chloro-3-(4-fluoro-1H-pyrazol-3-yl)benzoyl]-3,4,6,7,9,9a-hexahydro-1H-pyrazino[2,1-c][1,4]oxazin-3-yl]-5-chloro-1H-pyridin-2-one], 277 nM; that for `COc1cccc(C(=O)N2CCN3C[C@@](O)(c4cccc(C(F)(F)F)c4)OC[C@@H]3C2)c1Cl` [Example 141, [(3R,9aS)-3-hydroxy-3-[3-(trifluoromethyl)phenyl]-1,4,6,7,9,9a-hexahydropyrazino[2,1-c][1,4]oxazin-8-yl]-(2-chloro-3-methoxy-phenyl)methanone], 288 nM.

Molecule `COc1cccc(C(=O)N2CCN3C[C@@](O)(c4cccc(F)c4F)OC[C@@H]3C2)c1Cl` [Example 142, [(3R,9aS)-3-(2,3-difluorophenyl)-3-hydroxy-1,4,6,7,9,9a-hexahydropyrazino[2,1-c][1,4]oxazin-8-yl]-(2-chloro-3-methoxy-phenyl)methanone] showed an IC50 of 332 nM. For the molecule `COc1cccc(C(=O)N2CCN3C[C@@](O)(c4cc(-c5ccccc5)no4)OC[C@@H]3C2)c1Cl` [Example 143, [(3S,9aS)-3-hydroxy-3-(3-phenylisoxazol-5-yl)-1,4,6,7,9,9a-hexahydropyrazino[2,1-c][1,4]oxazin-8-yl]-(2-chloro-3-methoxy-phenyl)methanone], the IC50 was 348 nM.

`COc1cccc(C(=O)N2CCN3C[C@@](O)(c4cc(F)c(F)cc4F)OC[C@@H]3C2)c1Cl` [Example 144, [(3R,9aS)-3-hydroxy-3-(2,4,5-trifluorophenyl)-1,4,6,7,9,9a-hexahydropyrazino[2,1-c][1,4]oxazin-8-yl]-(2-chloro-3-methoxy-phenyl)methanone] yielded an IC50 of 355 nM. With `COc1cccc(C(=O)N2CCN3CC(c4ccc(F)c(-c5cnco5)c4)OC[C@@H]3C2)c1Cl` (stereo partly drawn) [Example 145, [(9aS)-3-(4-fluoro-3-oxazol-5-yl-phenyl)-3,4,6,7,9,9a-hexahydro-1H-pyrazino[2,1-c][1,4]oxazin-8-yl]-(2-chloro-3-methoxy-phenyl)methanone] the figure was 363 nM. The result for `COc1cccc(C(=O)N2CCN3C[C@@](O)(c4nc5ccccc5s4)OC[C@@H]3C2)c1Cl` [Example 146, [(3S,9aS)-3-(1,3-benzothiazol-2-yl)-3-hydroxy-1,4,6,7,9,9a-hexahydropyrazino[2,1-c][1,4]oxazin-8-yl]-(2-chloro-3-methoxy-phenyl)methanone] reads 378 nM; that for `COc1ccc(F)c(C(=O)N2CCN3C[C@@H](c4cc(Cl)c[nH]c4=O)OC[C@@H]3C2)c1Cl` [Example 147, 3-[(3R,9aS)-8-(2-chloro-6-fluoro-3-methoxy-benzoyl)-3,4,6,7,9,9a-hexahydro-1H-pyrazino[2,1-c][1,4]oxazin-3-yl]-5-chloro-1H-pyridin-2-one], 385 nM; that for `COc1cccc(C(=O)N2CCN3C[C@@H](c4ccc(Cl)c(C(F)(F)F)n4)OC[C@@H]3C2)c1Cl` [Example 148, [(3S,9aS)-3-[5-chloro-6-(trifluoromethyl)-2-pyridyl]-3,4,6,7,9,9a-hexahydro-1H-pyrazino[2,1-c][1,4]oxazin-8-yl]-(2-chloro-3-methoxy-phenyl)methanone], 426 nM.

`COc1cccc(C(=O)N2CCN3C[C@@H](c4cccc(F)c4F)OC[C@@H]3C2)c1Cl` [Example 149, [(3R,9aS)-3-(2,3-difluorophenyl)-3,4,6,7,9,9a-hexahydro-1H-pyrazino[2,1-c][1,4]oxazin-8-yl]-(2-chloro-3-methoxy-phenyl)methanone] displayed an IC50 of 468 nM.

The molecule `COc1cccc(C(=O)N2CCN3C[C@@](O)(c4ccccc4Cl)OC[C@@H]3C2)c1Cl` [Example 150, [(3R,9aS)-3-(2-chlorophenyl)-3-hydroxy-1,4,6,7,9,9a-hexahydropyrazino[2,1-c][1,4]oxazin-8-yl]-(2-chloro-3-methoxy-phenyl)methanone] gave an IC50 of 546 nM.
